{"source": "patent US9518038B2", "about": "“Condensation product of theanine derivative and carboxylic acid coumarin derivative, its intermediate, preparation method and use thereof” (SHANDONG YINGDONG YINGHAO BIOTECHNOLOGY, INC., priority 2012, dated 2016)", "key": {"mouse melanoma cells B16": {"tested_on": "mouse melanoma cells B16", "experiment": "MTT growth inhibition, B16 cells", "type": "cell-based", "conditions": "Mus musculus, 72 h after treatment, read-out: Drug concentration (IC50) at which 50% cancer cells survived"}, "Cyclin D1": {"tested_on": "Cyclin D1", "experiment": "Western Blotting, Cyclin D1 level", "type": "cell-based", "conditions": "human liver cancer cells, Lewis lung cancer cells and other cancer cell lines and tumor tissues, read-out: Effective concentration (IC50) for inhibition of Cyclin D1", "description": "(§1) Antibodies: primary antibodies of VEGFR, EGFR, c-Met, K-Ras, H-Ras, Akt, NF-κB, Cyclin D1, ER-alpha, Dvl-1, Dvl-2, Dvl-3, MMP-9, MMP2, β-catenin, Bcl-2, Bax, p53, p21, E-cadherin and Caspase3 protein, purchased from American Cell Signaling Technology Company and Santa Cruz Technology Company; and H3 acetylation, H4 acetylation and HDAC (HDAC3, HDAC4 and the like) Antibody Sample Kits, purchased from Cell Signaling Technology Company of the U.S.\n(§2) (3) polyacrylamide gel electrophoresis (SDS-PAGE): an equal amount of protein lysate sample was used to separate protein, film transfer, and blocking, treated with appropriate primary antibodies and secondary antibodies in sequence, and the film was washed, then the color was developed with ECL kit, and a blot protein band was detected by exposure of an X-ray film; and a Gel-Pro Analyzer was used for quantitative analysis of gray degree, optical density value of the control group and the drug treatment group in various concentration were respectively compared with that of internal reference, the obtained ratios were respectively compared with the control group, and the protein expression level was semi-quantified."}, "[1]": {"tested_on": "human liver cancer cells SMMC7721 xenograft", "experiment": "In-vivo growth of SMMC7721 xenografts in nude mice", "parameters": "species or system BALB/c nude mice", "conditions": "Mus musculus, SMMC-7721, ip, S-7721 xenograft, vs DMSO solvent control, read-out: Curative effect (inhibition rate %) of tumor weight", "method": "(§3) RPMI1640 and DMEM culture solutions: Hyclone Company; inactivated fetal bovine serum: Hyclone Company, preserved at −20° C.; trypsin: Amersco Company; and 0.4% trypan blue: Sigma Company;\n(§4) (3) Observation of growth of tumors in nude mice: the activities (including food intake, traits of urine and stool, mental state and the like) of the nude mice and the tumor growth time and growth situation of the transplanted tumors were observed every day, the body weight and the size of the tumors were measured once every 2-3 days. The long diameter a and the short diameter b (mm) of each tumor were measured by a vernier caliper to calculate the volume, wherein the volume V=π1/2·ab^2 (mm^3);\n(§5) (4) sacrifice of animals: the mice were anesthetized and photoed after treatment experiments; the nude mice were sacrificed by breaking neck, the tumor tissues were stripped under sterile conditions and the weight of the tumors was weighed; and the effects of the drugs on pathology and toxicity of the various organs and tissues were detected."}, "K-Ras": {"tested_on": "K-Ras", "experiment": "Western Blotting, K-Ras level", "type": "cell-based", "conditions": "human liver cancer cells, Lewis lung cancer cells and other cancer cell lines and tumor tissues, read-out: Effective concentration (IC50) for inhibition of K-Ras", "description": "as §1, §2"}, "[2]": {"tested_on": "human breast cancer cells MDA-MB-231", "experiment": "MTT growth inhibition, MDA-MB-231 cells", "type": "cell-based", "conditions": "72 h after treatment, read-out: Drug concentration (IC50) at which 50% cancer cells survived"}, "VEGFR2": {"tested_on": "VEGFR2", "experiment": "Western Blotting, VEGFR2 level", "type": "cell-based", "conditions": "human liver cancer cells, Lewis lung cancer cells and other cancer cell lines and tumor tissues, read-out: Effective concentration (IC50) for inhibition of VEGFR2", "description": "as §1, §2"}, "[3]": {"tested_on": "human breast cancer cells MCF-7", "experiment": "MTT growth inhibition, MCF-7 cells", "type": "cell-based", "conditions": "MCF7, 72 h after treatment, read-out: Drug concentration (IC50) at which 50% cancer cells survived"}, "[4]": {"tested_on": "human pancreatic cancer cells PANC-1 xenograft", "experiment": "In-vivo growth of PANC-1 xenografts in nude mice", "parameters": "species or system BALB/c nude mice", "conditions": "Mus musculus, ip, vs DMSO solvent control, read-out: Curative effect (inhibition rate %) of tumor weight", "method": "as §3, §4, §5"}, "[5]": {"tested_on": "human oral epidermoid cancer cells KBV200", "experiment": "MTT growth inhibition, KBV200 cells", "type": "cell-based", "conditions": "72 h after treatment, read-out: Drug concentration (IC50) at which 50% cancer cells survived"}, "Caspase3": {"tested_on": "Caspase3", "experiment": "Western Blotting, increase of Caspase3 level", "type": "cell-based", "conditions": "liver cancer cells, Lewis lung cancer cells and other cancer cell lines and tumor tissue protein lysates, 48 h treatment, read-out: Effective concentration to increase Caspase-3 by 50%", "description": "as §1, §2"}, "[6]": {"tested_on": "human colon cancer cells HT29", "experiment": "MTT growth inhibition, HT29 cells", "type": "cell-based", "conditions": "HT-29, 72 h after treatment, read-out: Drug concentration (IC50) at which 50% cancer cells survived"}, "[7]": {"tested_on": "human chronic leukemia cells K562", "experiment": "MTT growth inhibition, K562 cells", "type": "cell-based", "conditions": "72 h after treatment, read-out: Drug concentration (IC50) at which 50% cancer cells survived"}, "[8]": {"conditions": "60 mg/kg intraperitoneal once a day"}, "[9]": {"conditions": "90 mg/kg intraperitoneal once a day"}}, "data": [{"smiles": "CCNC(=O)CC[C@@H](NC(=O)c1cc2cc(Br)ccc2oc1=O)C(=O)OCC", "note": "[Compound Id, (R)-2-(6-Br-2-oxo-2H-benzopyran-3-carboxamido)-5-ethylamino-5-oxo-pentanoic acid ethyl ester]", "values": [{"measurement": "IC50", "setting": "mouse melanoma cells B16", "result": 120, "unit": "µM"}, {"measurement": "IC50", "setting": "Cyclin D1", "result": "< 100", "unit": "µM"}, {"measurement": "inhibition in vivo at 60 mg/kg", "setting": "[1]; [8]", "result": 67.2, "unit": "%"}, {"measurement": "inhibition in vivo at 90 mg/kg", "setting": "[1]; [9]", "result": 75.7, "unit": "%"}, {"measurement": "IC50", "setting": "K-Ras", "result": "< 60", "unit": "µM"}, {"measurement": "IC50", "setting": "[2]", "result": 91, "unit": "µM"}, {"measurement": "IC50", "setting": "VEGFR2", "result": "< 100", "unit": "µM"}, {"measurement": "IC50", "setting": "[3]", "result": 102, "unit": "µM"}, {"measurement": "inhibition in vivo at 60 mg/kg", "setting": "[4]; [8]", "result": 54.2, "unit": "%"}, {"measurement": "inhibition in vivo at 90 mg/kg", "setting": "[4]; [9]", "result": 64.8, "unit": "%"}, {"measurement": "IC50", "setting": "[5]", "result": 112, "unit": "µM"}, {"measurement": "EC50", "setting": "Caspase3", "result": "< 100", "unit": "µM"}, {"measurement": "IC50", "setting": "[6]", "result": 45, "unit": "µM"}, {"measurement": "IC50", "setting": "[7]", "result": 125, "unit": "µM"}]}]}
